Measured values: ChEMBL document CHEMBL4152269, “New N-phenylpyrrolamide DNA gyrase B inhibitors: Optimization of efficacy and antibacterial activity” (Eur J Med Chem, 2018)
≈ marks a conversion by molar mass, not a printed value.

What was measured:
Staphylococcus aureus [1] = assay: Growth inhibition of Staphylococcus aureus ATCC 25923 at 50 uM after 24 hrs by broth microdilution method relative to control; type: functional; conditions: ATCC 25923, 24 h, read-out: GI
Enterococcus faecalis [2] = assay: Growth inhibition of Enterococcus faecalis ATCC 29212 at 50 uM after 24 hrs by broth microdilution method relative to control; type: functional; conditions: ATCC 29212, 24 h, read-out: GI
Escherichia coli [3] = assay: Growth inhibition of Escherichia coli ATCC 25922 at 50 uM after 24 hrs by broth microdilution method relative to control; type: functional; conditions: ATCC 25922, 24 h, read-out: GI
Pseudomonas aeruginosa = assay: Growth inhibition of Pseudomonas aeruginosa ATCC 27853 at 50 uM after 24 hrs by broth microdilution method relative to control; type: functional; conditions: ATCC 27853, 24 h, read-out: GI
Escherichia coli [4] = assay: Growth inhibition of tolC deficient Escherichia coli JW5503 at 50 uM after 24 hrs by broth microdilution method relative to control; type: functional; conditions: JW5503, 24 h, read-out: GI
Escherichia coli [5] = assay: Growth inhibition of lpxC deficient Escherichia coli JD17464 at 50 uM after 24 hrs by broth microdilution method relative to control; type: functional; conditions: JD17464, 24 h, read-out: GI
DNA gyrase subunit B [6] = biological target: DNA gyrase subunit B (Staphylococcus aureus, UniProt P0A0K8); assay: Inhibition of Staphylococcus aureus DNA gyrase B preincubated for 10 mins followed by ATP addition measured after 30 mins by purine nucleoside phosphorylase enzyme coupled spectrophotometric method
Sequence of DNA gyrase subunit B (Staphylococcus aureus, UniProt P0A0K8) (P0A0K8 whole entry): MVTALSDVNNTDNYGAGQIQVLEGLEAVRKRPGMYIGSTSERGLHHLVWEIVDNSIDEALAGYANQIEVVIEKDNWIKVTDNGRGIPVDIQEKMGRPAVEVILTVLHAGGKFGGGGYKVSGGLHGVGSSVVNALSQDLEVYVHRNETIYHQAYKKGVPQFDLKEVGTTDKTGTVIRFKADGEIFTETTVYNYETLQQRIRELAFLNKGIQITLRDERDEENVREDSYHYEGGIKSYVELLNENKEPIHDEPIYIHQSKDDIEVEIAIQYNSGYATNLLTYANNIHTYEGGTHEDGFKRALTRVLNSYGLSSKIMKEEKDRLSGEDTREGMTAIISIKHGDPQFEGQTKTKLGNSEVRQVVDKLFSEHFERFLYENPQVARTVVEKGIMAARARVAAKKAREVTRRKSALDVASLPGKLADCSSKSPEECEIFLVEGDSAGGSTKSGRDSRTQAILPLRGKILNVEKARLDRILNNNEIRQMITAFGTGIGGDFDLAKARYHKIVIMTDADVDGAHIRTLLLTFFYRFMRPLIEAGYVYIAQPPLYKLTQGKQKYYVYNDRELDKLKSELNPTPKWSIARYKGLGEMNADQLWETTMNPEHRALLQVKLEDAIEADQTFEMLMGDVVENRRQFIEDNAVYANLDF

Staphylococcus aureus [7] = assay: Inhibition of Staphylococcus aureus topoisomerase-4 assessed as residual activity at 1 uM preincubated for 10 mins followed by ATP addition measured after 30 mins by purine nucleoside phosphorylase enzyme coupled spectrophotometric method relative to control
DNA gyrase subunit B [8] = biological target: DNA gyrase subunit B (Escherichia coli, UniProt P0AES6); assay: Inhibition of Escherichia coli DNA gyrase by supercoiling assay
[9] = Inhibition of Escherichia coli C-terminal His6-tagged topoisomerase-4 expressed in Escherichia coli BL21(DE3) preincubated for 10 mins followed by ATP addition measured after 30 mins by purine nucleoside phosphorylase enzyme coupled spectrophotometric method
[10] = Inhibition of Staphylococcus aureus topoisomerase-4 assessed as residual activity preincubated for 10 mins followed by ATP addition measured after 30 mins by purine nucleoside phosphorylase enzyme coupled spectrophotometric method
Escherichia coli [11] = assay: Antibacterial activity against tolC deficient Escherichia coli JW5503 after 18 hrs by broth microdilution method; type: functional; conditions: JW5503, 18 h
Enterococcus faecalis [12] = assay: Antibacterial activity against Enterococcus faecalis ATCC 29212 after 18 hrs by broth microdilution method; type: functional; conditions: ATCC 29212, 18 h

Row | SMILES | inhibition of growth at 50 µM (Staphylococcus aureus [1]) | inhibition of growth at 50 µM (Enterococcus faecalis [2]) | inhibition of growth at 50 µM (Escherichia coli [3]) | inhibition of growth at 50 µM (Pseudomonas aeruginosa) | inhibition of growth at 50 µM (Escherichia coli [4]) | inhibition of growth at 50 µM (Escherichia coli [5]) | IC50 (DNA gyrase subunit B [6]) | Activity (Staphylococcus aureus [7]) | IC50 (DNA gyrase subunit B [8]) | IC50 [9] | IC50 [10] | MIC90 (Escherichia coli [11]) | MIC90 (Enterococcus faecalis [12])
1 | NCCOc1cc(C(=O)NCC(=O)O)ccc1NC(=O)c1cc(Br)c(Br)[nH]1 | -2% | 0% | 0% | 11% | -8% | -5% |  |  |  |  |  |  | 
2 | COC(=O)CNC(=O)c1ccc(NC(=O)c2[nH]c(C)c(Cl)c2Cl)cc1OC(C)C | -5% | 44% | 6% | -5% |  |  |  |  |  |  |  |  | 
3 | Cc1[nH]c(C(=O)Nc2ccc(C(=O)N[C@@H](C)C(=O)O)cc2OCCNC(=O)OC(C)(C)C)c(Cl)c1Cl | -11% | -1% | 5% | 5% | 11% | 14% | 1300 nM | 99% | 590 nM |  |  |  | 
4 | Cc1[nH]c(C(=O)Nc2ccc(C(=O)N[C@@H](C)c3n[nH]c(=O)o3)cc2OCCN)c(Cl)c1Cl | 0% | -6% | 1% | 16% | 88% | 13% | 1000 nM |  | 13 nM | 570 nM | 960 nM | 50 µM (≈ 24.2 µg/mL) | 
5 | CC(C)(C)OC(=O)NCCOc1cc(C(=O)NCC(=O)O)ccc1NC(=O)c1cc(Br)c(Br)[nH]1 | 7% | 1% | 2% | 9% | 5% | -2% |  |  |  |  |  |  | 
6 | Cc1[nH]c(C(=O)Nc2ccc(C(=O)N[C@@H](C)c3n[nH]c(=O)o3)cc2OCCNC(=O)OC(C)(C)C)c(Cl)c1Cl | 3% | 86% | -1% | 31% | -5% | 2% |  |  | 1600 nM |  |  |  | 100 µM (≈ 58.3 µg/mL)
7 | CN(C)CCOc1cc(NC(=O)c2cc(Br)c(Br)[nH]2)ccc1C(=O)NCC(=O)O | 28% | 14% | 7% | 4% |  |  |  |  |  |  |  |  | 
8 | COC(=O)[C@@H](NC(=O)c1ccc(NC(=O)c2cc(Br)c(Br)[nH]2)c(OC(C)C)c1)C(C)C | 33% | 59% | 13% | 6% | -9% | 22% |  |  |  |  |  |  | 
9 | COC(=O)[C@@H](C)NC(=O)c1ccc(NC(=O)c2[nH]c(C)c(Cl)c2Cl)c(OC(C)C)c1 | 29% | -41% | 12% | 5% | 11% | 27% |  |  |  |  |  |  | 
10 | COC(=O)[C@H](Cc1ccccc1)NC(=O)c1ccc(NC(=O)c2cc(Br)c(Br)[nH]2)c(OCCN)c1 | 103% | 102% | 9% | 28% | 103% | 23% |  |  |  |  |  | 25 µM (≈ 15.2 µg/mL) | 50 µM (≈ 30.4 µg/mL)
11 | COC(=O)[C@H](Cc1ccccc1)NC(=O)c1ccc(NC(=O)c2[nH]c(C)c(Cl)c2Cl)c(OC(C)C)c1 | -3% | 74% | 13% | 6% | -5% | 25% |  |  |  |  |  |  | 
12 | Cc1[nH]c(C(=O)Nc2ccc(C(=O)N[C@@H](C)C(=O)O)cc2OCCN)c(Cl)c1Cl | 17% | 36% | 4% | 10% | -4% | 5% | 110 nM |  | 28 nM | 530 nM | 3200 nM |  | 
13 | CC(C)Oc1cc(C(=O)N[C@H](C(=O)O)C(C)C)ccc1NC(=O)c1cc(Br)c(Br)[nH]1 | -13% | 80% | -2% | 11% | 18% | -1% |  |  |  |  |  |  | > 75 µM
14 | Cc1[nH]c(C(=O)Nc2ccc(C(=O)N[C@H](C)C(=O)O)cc2OC(C)C)c(Cl)c1Cl | 59% | 101% | 4% | -1% | 52% | 5% | 1600 nM |  | 41 nM | 7400 nM | 1300 nM |  | 6.25 µM (≈ 2.76 µg/mL)
15 | COC(=O)[C@H](C)NC(=O)c1ccc(NC(=O)c2cc(Br)c(Br)[nH]2)c(OC(C)C)c1 | 42% | 65% | 5% | 9% | 97% | 11% |  |  |  |  |  | 25 µM (≈ 13.3 µg/mL) | 
16 | Cc1[nH]c(C(=O)Nc2ccc(C(=O)N[C@@H](C)C(=O)NN)cc2OC(C)C)c(Cl)c1Cl | 5% | 99% | 7% | 9% | 7% | 3% | 22000 nM | 92% | 280 nM |  |  |  | 6.25 µM (≈ 2.85 µg/mL)
17 | Cc1[nH]c(C(=O)Nc2ccc(C(=O)N[C@@H](C)C(=O)O)cc2OC(C)C)c(Cl)c1Cl | -21% | 100% | 0% | 8% | 97% | -10% | 93 nM |  | 38 nM | 450 nM | 280 nM | 50 µM (≈ 22.1 µg/mL) | 3.13 µM (≈ 1.38 µg/mL)
18 | Cc1[nH]c(C(=O)Nc2ccc(C(=O)NCC(=O)O)c(OC(C)C)c2)c(Cl)c1Cl | -9% | 75% | 12% | 11% |  |  | 140 nM |  | 91 nM |  | 12000 nM |  | 
19 | Cc1[nH]c(C(=O)Nc2ccc(C(=O)N[C@@H](Cc3ccccc3)C(=O)O)cc2OC(C)C)c(Cl)c1Cl | -57% | 99% | -2% | 4% | 8% | 1% |  |  |  |  |  |  | 3.13 µM (≈ 1.62 µg/mL)
20 | Cc1[nH]c(C(=O)Nc2ccc(C(=O)N[C@@H](C)C(=O)NN)cc2OCCNC(=O)OC(C)(C)C)c(Cl)c1Cl | 7% | 64% | 5% | 12% | 13% | 19% |  |  |  |  |  |  | 
21 | COC(=O)[C@H](C)NC(=O)c1ccc(NC(=O)c2[nH]c(C)c(Cl)c2Cl)c(OC(C)C)c1 | -45% | 57% | 0% | 8% | -12% | 6% |  |  |  |  |  |  | 
